In patent US20070027189A1, “Use of known active ingredients as radical scavengers” (Altana Pharma AG, priority 2003, published 2007):

What was measured:
[1] = OH-radical-dependent degradation of haeme group (Soret band at 408 nm), Cu/ascorbate Fenton reaction; type: biochemical, Bovine; settings: for inhibition of heme degradation: aqueous assay; for inhibition of heme degradation compared to control: dissolved in DMF
From the text: A suitable assay is the inhibition of the OH-radical-dependent degradation of the heme system of heme proteins. The […] of the Soret band of the heme group can be conveniently quantified in the 350-450 nm region. An alternative assay used was the depolymerisation of hyaluronic acid by OH-radicals The progressive depolymerisation of this mucopolysaccharide was followed viscosimetrically and should be inhibited accordingly in the presence of the prazoles. Bovine erythrocytes were haemolysed and diluted with water to give an electronic absorption at 408 nm of 1.0. The assay was performed analogous to that of the myeloperoxidase enzymatic activity test where hypochlorite is produced which is known to degrade the heme group of heme proteins. To 574 μl of aqueous haeme solution in a thermostatted cuvette 6 μl of DMF or water and 10 μl of […] aqueous copper sulphate were added for 5 minutes. The reaction was started after the addition of 10 μl 50 μM ascorbic acid and the absorption followed at 37° C. for two minutes in the control experiment. Depending on the solubility the respective inhibitor was added in a volume of 6 μl in DMF or water. The total volume was 600 μl.

[2] = depolymerisation of hyaluronic acid by OH-radicals, viscosimetric; type: biochemical
From the text: A suitable assay is the inhibition of the OH-radical-dependent degradation of the heme system of heme proteins. The […] of the Soret band of the heme group can be conveniently quantified in the 350-450 nm region. An alternative assay used was the depolymerisation of hyaluronic acid by OH-radicals The progressive depolymerisation of this mucopolysaccharide was followed viscosimetrically and should be inhibited accordingly in the presence of the prazoles. Depolymerisation of hyaluronic acid was measured in terms of viscosity change with time. Potassium hyaluronate was purchased from Sigma-Aldrich Chemie, Steinheim, Germany. All operations were performed at room temperature (22° C.). Relative viscosity was monitored by recording the time (seconds) required for a given volume (0.8 ml) of the reaction mixture to drain by gravity from the barrel of a plastic 1 ml syringe through a needle of appropriate size. The meniscus was timed as it passed between two calibration marks on the syringe barrel. […] The reaction was started with 30 μl of 50 mM ascorbic acid in presence of 10 mM phosphate buffer pH 7.2 and incubated for 5 minutes. […] When the water-soluble sodium salt of pantoprazole was examined only 2.5 μl 10 mM copper sulphate and 5 μl 50 mM ascorbic acid were needed to yield an appropriate depolymerization effect.

[3] = superoxide radical scavenging system (superoxide dismutase assay using nitro tetrazolium chloride); type: biochemical
Description: In order to examine a possible reactivity of the substituted benzimidazoles with superoxide a standard superoxide dismutase assay using nitro tetrazolium chloride was employed. Scavengeing of hydroxyl radicals was measured by three different established methods.

[4] = thiobarbituric acid assay (2-desoxy-D-ribose decomposition, Fe(II) Fenton reaction); type: biochemical; settings: concentration dependent
From the text: In a third completely different method OH-radicals generated during a Fenton reaction decomposed 2-desoxy-D-ribose. This reaction was monitored by measuring the formation of malondialdehyde-like compounds known to yield coloured thiobarbituric acid adducts which were eventually recorded at 532 nm. […] This was attributed to the extraordinary stability of this compound surviving a hydroxyl radical burst A crucial question was the survival of these benzimidazoles during Fenton-type reactions. These stability measurements were conducted employing HPLC analysis allowing the detection of remaining intact primary compounds. The thiobarbituric acid assay was performed according to the method described earlier [10]300 μl 7.5 mM 2-desoxy-D-ribose were added to 1000 μl 10 mM potassium-phosphate buffer, pH 7.4 and incubated for 30 min. at 37° C. in the presence of 100 μl inhibitor compound and 100 μl 10 mM iron(II)ammonium sulphate. The total volume was 1.5 ml. The reaction was stopped by the addition of 1 ml 1% (w/v) thiobarbituric acid dissolved in 50 mM NaOH and 1 ml of 2.8% (w/v) trichloro acetic acid and maintained for 15 min at 95° C. The control reaction mixture contained the same volume of DMFas was present in the inhibitor compound. The dye was measured at 532 nm.

[5] = stability under conditions of the Fenton reaction, HPLC analysis; type: physicochemical; settings: 90 min of incubation, n=3
From the text: In a third completely different method OH-radicals generated during a Fenton reaction decomposed 2-desoxy-D-ribose. This reaction was monitored by measuring the formation of malondialdehyde-like compounds known to yield coloured thiobarbituric acid adducts which were eventually recorded at 532 nm. […] This was attributed to the extraordinary stability of this compound surviving a hydroxyl radical burst A crucial question was the survival of these benzimidazoles during Fenton-type reactions. These stability measurements were conducted employing HPLC analysis allowing the detection of remaining intact primary compounds. A 200 μl aliquot of the incubation mixture was analysed by HPLC using the analytical column Nucleosil C 8, 5 μm (125×4.6 mm, Fa. Grom, Herrenberg, Germany) and the precolumn was LiCHROPREP RP-2 (12×4 mm, Fa. Merck, Darmstadt, Germany) in a reverse phase. A gradient of acetonitrile (10-45% (v/v)) and 10 mM phosphate buffer, pH 7.4, at a flow rate of 1 ml min-1 was used as effluent on the analytical column.

[6] = scavenging of hydroxyl radicals generated during a Fenton reaction (three assays); type: biochemical
Description: Bovine erythrocytes were haemolysed and diluted with water to give an electronic absorption at 408 nm of 1.0. The assay was performed analogous to that of the myeloperoxidase enzymatic activity test where hypochlorite is produced which is known to degrade the heme group of heme proteins. To 574 μl of aqueous haeme solution in a thermostatted cuvette 6 μl of DMF or water and 10 μl of […] aqueous copper sulphate were added for 5 minutes. The reaction was started after the addition of 10 μl 50 μM ascorbic acid and the absorption followed at 37° C. for two minutes in the control experiment. Depending on the solubility the respective inhibitor was added in a volume of 6 μl in DMF or water. The total volume was 600 μl. Depolymerisation of hyaluronic acid was measured in terms of viscosity change with time. Potassium hyaluronate was purchased from Sigma-Aldrich Chemie, Steinheim, Germany. All operations were performed at room temperature (22° C.). Relative viscosity was monitored by recording the time (seconds) required for a given volume (0.8 ml) of the reaction mixture to drain by gravity from the barrel of a plastic 1 ml syringe through a needle of appropriate size. The meniscus was timed as it passed between two calibration marks on the syringe barrel. […] The dye was measured at 532 nm.

[7] = after oral administration; read-out: maximal concentration (Cmax) in plasma; cited from earlier work

Row | inhibition of heme degradation ([1]; 25 μM) | inhibition of heme degradation ([1]; 50 μM) | inhibition of heme degradation ([1]; 100 μM) | inhibition of heme degradation compared to control ([1]; 50 μM) | inhibition of heme degradation compared to control ([1]; 100 μM) | mucopolysaccharide degradation ([2]; 80 μM dissolved in DMF, within 20 min) | decrease of intact compound after OH-radical exposure [5] | SMILES | inhibition of hyaluronic acid depolymerisation ([2]; 12 μM, fully aqueous assay) | biopolymer protected ([2]; 20 μM, fully aqueous assay) | reactivity in the superoxide radical scavenging system [3] | inhibition of hyaluronic acid depolymerisation ([2]; 160 μM dissolved in DMF) | inhibitory effect on OH-radical decomposition of desoxyribose [4] | scavenging of hydroxyl radicals [6] | Cmax [7]
1 | distinct inhibition | 34% | 74% | – | – | – | – | COc1ccnc(C[S+]([O-])c2nc3ccc(OC(F)F)cc3[nH]2)c1OC (centres unmarked) [pantoprazole sodium] | 46% | 90% | – | – | – | – | –
2 | – | – | – | 36% | 75% | 48% | 15% | COc1ccnc(C[S+]([O-])c2nc3ccc(OC(F)F)cc3[nH]2)c1OC (centres unmarked) [pantoprazole, 5-difluoromethoxy-2-[(3,4-dimethoxy-2-pyridinyl)methylsulphinyl]-1H-benzimidazole] | – | – | did not display detectable reactivity | nearly complete inhibition | inhibitory effect was clearly seen | pronounced inhibitory reactivity | 5 to 10 µM
